MIK data for eleven molecules are collected here from patent US7342000B2, “Semisynthetic macrolide antibiotics of the azalide series” (GlaxoSmithKline istrazivacki center Zagreb, priority 2002, dated 2008).

Holding throughout (experiment): MIC by broth dilution (NCCLS M7-A2)
Assay type in all cases: cell-based
Common to all, as to settings: 90% growth inhibition
Background: In broth dilution the organism is exposed to a series of concentrations in liquid medium.

Experiment [1] deals with S. pyogenes. The text has this: (§1) MIC levels for all compound were determinated on panel of susceptible, and resistant Gram positive bacterial strains (S. aureus, S. pneumoniae and S. pyogenes) and on Gram negative strains (E. coli, H. influenzae, […], M. catarrhalis).
Experiment [2] relates to S. aureus ATCC 13709.
Source text: as §1

For experiment [3], the system named is E. faecalis ATCC 29212.
Source text: as §1

The test system of experiment [4] is M. catarrhalis ATCC 23246.
Source text: as §1

Experiment [5] has as its system S. pyogenes iMLS.
Source text: as §1

The subject of experiment [6] is S. pneumoniae.
Source text: as §1

In experiment [7] the test system is S. pyogenes M.
Source text: as §1

Experiment [8] concerns E. coli ATCC 25922.
Source text: as §1

The subject of experiment [9] is H. influenzae ATCC 49247.
Source text: as §1

Bounds are passed on as bounds.

For the molecule `CC[C@H]1OC(=O)[C@H](C)[C@@H](O[C@H]2C[C@@](C)(OC)[C@@H](O)[C@H](C)O2)[C@H](C)[C@@H](O[C@@H]2O[C@H](C)C[C@H](N(C)C)[C@H]2O)[C@](C)(O)C[C@@H](C)CN(CCCNC(=O)N(CCC#N)c2cccc3ccccc23)[C@H](C)[C@@H](O)[C@]1(C)O` [Example 28, 9-Deoxo-9-dihydro-9a-N-[N′-(β-cyanoethyl)-N′-(1-naphtyl)carbamoyl-γ-aminopropyl]-9a-aza-9a-homoerithromycin A], the MIK entry in experiment [1] is “≦0.125 μg/ml”; in experiment [2], 1 µg/mL; in experiment [3], 4 µg/mL; in experiment [4], 0.25 µg/mL; in experiment [5], 2 µg/mL; in experiment [6], “≦0.125 μg/ml”. Moreover, the figures for the MIK in experiment [7], in experiment [8] and in [9] were 4 µg/mL, 8 µg/mL and 1 µg/mL, respectively.
For the molecule `CC[C@H]1OC(=O)[C@H](C)[C@@H](O[C@H]2C[C@@](C)(OC)[C@@H](O)[C@H](C)O2)[C@H](C)[C@@H](O[C@@H]2O[C@H](C)C[C@H](N(C)C)[C@H]2O)[C@](C)(O)C[C@@H](C)CN(CCCNC(=S)N(CCC#N)c2cccc3ccccc23)[C@H](C)[C@@H](O)[C@]1(C)O` [Example 31, 9-Deoxo-9-dihydro-9a-N-[N′-(β-cyanoethyl)-N′-(1-naphtyl)thiocarbamoyl-γ-aminopropyl]-9a-aza-9a-homoerithromycin A], the MIK result in experiment [1] was “≦0.125 μg/ml”; in [2] it was 4 µg/mL; in [3] it was 4 µg/mL; in [4] it was 2 µg/mL; in experiment [5] it was 4 µg/mL; in [6], “≦0.125 μg/ml”. For the same molecule, the MIK in experiment [7] was found to be 4 µg/mL; in [8], 8 µg/mL; in [9], 2 µg/mL.
For the molecule `CC[C@H]1OC(=O)[C@H](C)[C@@H](O[C@H]2C[C@@](C)(OC)[C@@H](O)[C@H](C)O2)[C@H](C)[C@@H](O[C@@H]2O[C@H](C)C[C@H](N(C)C)[C@H]2O)[C@](C)(O)C[C@@H](C)CN(CCCNC(=O)NC(C)c2cccc3ccccc23)[C@H](C)[C@@H](O)[C@]1(C)O` (stereo partly drawn) [Example 10], the MIK result in [1] was “≦0.125 μg/ml”; in [2] it was 16 µg/mL; in [3] it was 16 µg/mL; in experiment [4], 4 µg/mL; in experiment [5], 8 µg/mL; in experiment [6], 8 µg/mL. Besides, the MIK in [7] is 16 µg/mL; in experiment [8], 64 µg/mL; in experiment [9], 2 µg/mL.
On to “9-Deoxo-9-dihydro-9a-N-[N′-(β-cyanoethyl)-N′-(3,4,5-trimethoxyphenyl)carbamoyl-γ-aminopropyl]-9a-aza-9a-homoerithromycin A [Example 37]”, for which the MIK result is “≦0.125 μg/ml” in experiment [1]; 4 µg/mL in experiment [2]; 16 µg/mL in [3]; 1 µg/mL in experiment [4]; 47 µg/mL in experiment [5]; “≦0.125 μg/ml” in experiment [6]. For the same molecule, the MIK in [7] was 8 µg/mL; in experiment [8], 16 µg/mL; in [9], 2 µg/mL.
With `CC[C@H]1OC(=O)[C@H](C)[C@@H](O[C@H]2C[C@@](C)(OC)[C@@H](O)[C@H](C)O2)[C@H](C)[C@@H](O[C@@H]2O[C@H](C)C[C@H](N(C)C)[C@H]2O)[C@](C)(O)C[C@@H](C)CN(CCCNC(=O)NCCc2ccccc2)[C@H](C)[C@@H](O)[C@]1(C)O` [Example 8, 9-Deoxo-9-dihydro-9a-N-[N′-(β-phenylethyl)carbamoyl-γ-aminopropyl]-9a-aza-9a-homoerithromycin A], the MIK entry was “≦0.125 μg/ml” in experiment [1]; 1 µg/mL in experiment [2]; 16 µg/mL in [3]; 1 µg/mL in experiment [4]; 4 µg/mL in experiment [5]; “≦0.125 μg/ml” in experiment [6]. Also, the MIK amounted to 8 µg/mL in experiment [7], 32 µg/mL in experiment [8] and 2 µg/mL in experiment [9].
Regarding `CC[C@H]1OC(=O)[C@H](C)[C@@H](O[C@H]2C[C@@](C)(OC)[C@@H](O)[C@H](C)O2)[C@H](C)[C@@H](O[C@@H]2O[C@H](C)C[C@H](N(C)C)[C@H]2O)[C@](C)(O)C[C@@H](C)CN(CCCNC(=O)Nc2cccc3ccccc23)[C@H](C)[C@@H](O)[C@]1(C)O` [Example 2, 9-Deoxo-9-dihydro-9a-N-[N′-(1-naphtyl)carbamoyl-γ-aminopropyl]-9a-aza-9a-homoerithromycin A], the MIK entry is “≦0.125 μg/ml” in [1]; 0.5 µg/mL in experiment [2]; 4 µg/mL in experiment [3]; 0.25 µg/mL in experiment [4]; 2 µg/mL in experiment [5]; “≦0.125 μg/ml” in experiment [6]. For the same molecule, the MIK in [7] came to 4 µg/mL; in [8] it was 8 µg/mL; in experiment [9], 1 µg/mL.
Consider `CCOC(=O)CNC(=O)NCCCN1CC(C)CC(C)(O)C(OC2OC(C)CC(N(C)C)C2O)C(C)C(OC2CC(C)(OC)C(O)C(C)O2)C(C)C(=O)OC(CC)C(C)(O)C(O)C1C` (stereo not drawn) [Example 9, 9-Deoxo-9-dihydro-9a-N-(N′-ethoxycarbonylmethylcarbamoyl-γ-aminopropyl)-9a-aza-9a-homoerithromycin A], for which the MIK entry in experiment [1] is “≦0.125 μg/ml”; in experiment [2] it was 8 µg/mL; in experiment [3], above 64 µg/mL; in experiment [4], 4 µg/mL; in [5], 16 µg/mL; in experiment [6], “≦0.125 μg/ml”. For the same molecule, the MIK was 64 µg/mL in [7], above 64 µg/mL in experiment [8] and 32 µg/mL in [9].
Regarding `CC[C@H]1OC(=O)[C@H](C)[C@@H](O[C@H]2C[C@@](C)(OC)[C@@H](O)[C@H](C)O2)[C@H](C)[C@@H](O[C@@H]2O[C@H](C)C[C@H](N(C)C)[C@H]2O)[C@](C)(O)C[C@@H](C)CN(CCCNC(=O)Nc2ccc3ccccc3c2)[C@H](C)[C@@H](O)[C@]1(C)O` [Example 12, 9-Deoxo-9-dihydro-9a-N-[N′-(2-naphtyl)carbamoyl-γ-aminopropyl]-9a-aza-9a-homoerithromycin A], the MIK entry in [1] is “≦0.125 μg/ml”; in experiment [2], 8 µg/mL; in experiment [3], 8 µg/mL; in [4], 0.5 µg/mL; in [5] it was 2 µg/mL; in experiment [6], 16 µg/mL. The MIK in experiment [7] is 8 µg/mL; in experiment [8], 32 µg/mL; in experiment [9], 2 µg/mL.
For `CCC1OC(=O)C(C)C(OC2CC(C)(OC)C(O)C(C)O2)C(C)C(OC2OC(C)CC(N(C)C)C2O)C(C)(O)CC(C)CN(CCCNC(=S)N(CCC#N)Cc2ccccc2)C(C)C(O)C1(C)O` (stereo not drawn) [Example 30, 9-Deoxo-9-dihydro-9a-N-[N′-(β-cyanoethyl)-N′-benzylthiocarbamoyl-γ-aminopropyl]-9a-aza-9a-homoerithromycin A], the MIK entry was “≦0.125 μg/ml” in experiment [1]; 1 µg/mL in experiment [2]; 8 µg/mL in [3]; 1 µg/mL in experiment [4]; 2 µg/mL in experiment [5]; “≦0.125 μg/ml” in experiment [6]. The MIK came out at 4 µg/mL in experiment [7], 16 µg/mL in experiment [8] and 2 µg/mL in [9].
With `CC[C@H]1OC(=O)[C@H](C)[C@@H](O[C@H]2C[C@@](C)(OC)[C@@H](O)[C@H](C)O2)[C@H](C)[C@@H](O[C@@H]2O[C@H](C)C[C@H](N(C)C)[C@H]2O)[C@](C)(O)C[C@@H](C)CN(CCCNC(=O)NCc2ccccc2)[C@H](C)[C@@H](O)[C@]1(C)O` [Example 3, 9-Deoxo-9-dihydro-9a-N-(N′-benzylcarbamoyl-γ-aminopropyl)-9a-aza-9a-homoerithromycin A], the MIK entry in [1] is “≦0.125 μg/ml”; in [2] it was 0.5 µg/mL; in experiment [3], 16 µg/mL; in [4] it was 1 µg/mL; in experiment [5] it was 4 µg/mL; in experiment [6], “≦0.125 μg/ml”. For the same molecule, the MIK in experiment [7] turned out to be 8 µg/mL; in [8], 16 µg/mL; in [9], 2 µg/mL.
Regarding `CC[C@H]1OC(=O)[C@H](C)[C@@H](O[C@H]2C[C@@](C)(OC)[C@@H](O)[C@H](C)O2)[C@H](C)[C@@H](O[C@@H]2O[C@H](C)C[C@H](N(C)C)[C@H]2O)[C@](C)(O)C[C@@H](C)CN(CCCNC(=O)N(CCC#N)c2ccccc2C(F)(F)F)[C@H](C)[C@@H](O)[C@]1(C)O` [Example 32, 9-Deoxo-9-dihydro-9a-N-[N′-(β-cyanoethyl)-N′-(2-(trifluoromethyl)phenyl)carbamoyl-γ-aminopropyl]-9a-aza-homoerithromycin A], the MIK entry was “≦0.125 μg/ml” in [1]; 4 µg/mL in [2]; 64 µg/mL in [3]; 8 µg/mL in experiment [4]; 8 µg/mL in [5]; “≦0.125 μg/ml” in experiment [6]. In addition, the MIK in experiment [7] amounted to 32 µg/mL; in [8] it was 32 µg/mL; in experiment [9] it was 16 µg/mL.
